Source: patent US11440887B2, “Substituted 1,2,3,4-tetrahydroquinolines as inhibitors of repair enzyme 8-oxoguanine deoxyribonucleic acid glycosylase activity” (The Board of Trustees of the Leland Stanford Junior …, priority 2017, dated 2022)
Where “and” joins values, the source holds several entries; their conditions need not be identical. Equal values may be shown once.

Tests used:
OGG1 [1] = biological target: T1, OGG1 (Homo sapiens (Human), UniProt O15527); assay: OGG1 inhibitor assay with fluorogenic OGR1 probe (base excision, initial rates); type: biochemical
Protocol: Methods: Synthesized compounds and hOGG1 (100 nM) were incubated in NEBuffer 4 (1×) with BSA (1×) at 37° C. (15 min) in 100 μL reaction volumes in a black 96-well plate. (See, e.g., Edwards, S. K., et al., ChemBioChem 2015, 16, 1637-1646, the disclosure of which is incorporated herein by reference.) After that, OGR1 (1.2 μM) was added to the reaction mixture. Fluorescence at 460 nm was measured on a Thermo Fluoroskan Ascent FL fluorescence plate reader (λex=355 nm). The slope of initial rate (12 min) was calculated, and % of control was used for inhibition activity. BSA, hOGG1 and NEBuffer 4 were purchased from New England Biolabs and used. UltraPure Distilled Water (Invitrogen) was purchased and used for the assay.

OGG1 [2] = biological target: T1, OGG1; assay: Km and Kcat study (Michaelis-Menten / Lineweaver-Burk) of OGG1 with inhibitor; type: biochemical
Protocol: Methods: For Michaelis-Menten curves: Inhibitor 41 and hOGG1 (100 nM) were incubated in NEBuffer 4 (1×) with BSA (1×) at 37° C. (15 min) in 100 μL reaction volumes in a black 96-well plate. After that, OGR1 (0.8-10 μM) was added to the reaction mixture. Fluorescence at 460 nm was measured on a Thermo Fluoroskan Ascent FL fluorescence plate reader (Aex=355 nm). The initial rate (12 min) was calculated. Lineweaver-Burk plot was leaded from the Michaelis-Menten curves. Km and Vmax were calculated from the equation. Kcat was calculated from Kcat=Vmax/[enzyme].

NUDT16 = NUDT16 (Homo sapiens (Human), UniProt Q96DE0); assay: NUDT16 assay; type: biochemical; conditions: 20 μM
Protocol: After 1 h incubation at 37° C., 5 μL of this reaction solution was added to 20 μL Kinase-Glo Luminescent Kinase Assay reaction solution (prepared as instructed for the ATP determination kit) in a 96 well plate. The bioluminescence signal was recorded at 1 min intervals over 10 min.

SMUG1 = SMUG1 (Homo sapiens (Human), UniProt Q53HV7); assay: SMUG1 assay; type: biochemical; conditions: 20 μM inhibitor
Protocol: (See, e.g., Ono, T., et al., Nucleic Acids Res. 2013, 41, e127-e127, the disclosure of which is incorporated herein by reference.) Enzyme (500 U/mL) was pre-incubated for 5 minutes with 20 μM inhibitor or vehicle or at 37° C. in 50 mM Tris (pH 7.4), 1 mM DTT and 0.5 mM EDTA. Probe 2 (1 μM) was added and the fluorescent signal was plotted over 15 minutes to calculate initial rate. Inhibitor rates were normalized against the vehicle control rate.

HEK293T cells = assay: MTT assay, HEK293T; type: cell-based, human; conditions: 24 h
Protocol: (§1) Methods: HEK293T cells (concentration of 1.6×10^4 cells per well) and HeLa cells (concentration of 1.2×10^4 cells per well) were seeded to 96-well plate in supplemented DMEM culture medium (10% FBS, 100 U Pen./Strep.) and incubated for 30 h (HEK293T cells) and 16 h (HeLa cells) at +37° C. and 5% CO2. […] After the incubation period, 10 μL of the MTT labeling reagent (final concentration 0.5 mg/ml) was added to each well, and incubated at +37° C. and 5%. 100 μl of the solubilization solution was added into each well, and incubated for 20 h at +37° C. and 5%. Absorbance of the samples was measured by using a microplate reader Tecan Infinite M1000 at 550, and 650 nm. […] In the rest of the samples (10 μM, 1 μM, 100 nM, and 10 nM) concentration of DMSO was at the level of 1%. The controls were prepared: Ctrl—cells cultured only in the supplemented DMEM; Ctrl 5% DMSO—cells cultured in 5% DMSO in the supplemented DMEM; Ctrl 1% DMSO—cells cultured in 1% DMSO in the supplemented DMEM.

HeLa cells = assay: MTT assay, HeLa; type: cell-based, human; conditions: 24 h
Protocol: as §1

[3] = system: Caco-2 cells (clone C2BBe1); assay: CACO-2 permeability assay; type: in vitro ADME; conditions: for Recovery: 5 μM, 120 minutes; for Papp AVG: average; for Papp R1: replicate 1
Protocol: Methods: Caco-2 cells (clone C2BBe1) were obtained from American Type Culture Collection (Manassas, Va.). Cell monolayers were grown to confluence on collagen-coated, microporous membranes in 12-well assay plates. Details of the plates and their certification are shown below. The permeability assay buffer was Hanks' balanced salt solution containing 10 mM HEPES and 15 mM glucose at a pH of 7.4. The buffer in the receiver chamber also contained 1% bovine serum albumin. The dosing solution concentration was 5 μM of test article in the assay buffer. Cell monolayers were dosed on the apical side (A-to-B) or basolateral side (B-to-A) and incubated at 37° C. with 5% CO2 in a humidified incubator. Samples were taken from the donor and receiver chambers at 120 minutes. Each determination was performed in duplicate. The flux of Lucifer yellow was also measured post-experimentally for each monolayer to ensure no damage was inflicted to the cell monolayers during the flux period. All samples were assayed by LC-MS/MS using electrospray ionization.

[4] = Half-life / pharmacokinetics after intraperitoneal dosing; type: in vivo; conditions: mice, IP, 3 mg/kg
Protocol: Methods: Each OGG1 inhibitor was dosed by intraperitoneal (IP) and oral (PO) routes of administration at a target dose of 3 mg/kg. Blood samples were collected up to 24 hours post-dose, and blood concentrations of the test articles were determined by LC-MS/MS. Pharmacokinetic parameters were determined using Phoenix WinNonlin (v8.0) software

[5] = system: DUT (deoxyuridine 5′-triphosphate nucleotidohydrolase); conditions: 20 μM

T1 sequence (O15527 whole entry): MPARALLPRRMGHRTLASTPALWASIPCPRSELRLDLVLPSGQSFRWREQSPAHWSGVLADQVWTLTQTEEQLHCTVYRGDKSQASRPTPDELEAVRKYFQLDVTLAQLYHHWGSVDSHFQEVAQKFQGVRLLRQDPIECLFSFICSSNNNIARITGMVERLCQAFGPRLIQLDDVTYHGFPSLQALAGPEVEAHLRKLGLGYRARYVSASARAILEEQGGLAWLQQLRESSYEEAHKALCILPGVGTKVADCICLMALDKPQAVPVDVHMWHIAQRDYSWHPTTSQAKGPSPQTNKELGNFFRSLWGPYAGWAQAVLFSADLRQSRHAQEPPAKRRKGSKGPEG
SMUG1, sequence (Q53HV7 whole entry, species assumed): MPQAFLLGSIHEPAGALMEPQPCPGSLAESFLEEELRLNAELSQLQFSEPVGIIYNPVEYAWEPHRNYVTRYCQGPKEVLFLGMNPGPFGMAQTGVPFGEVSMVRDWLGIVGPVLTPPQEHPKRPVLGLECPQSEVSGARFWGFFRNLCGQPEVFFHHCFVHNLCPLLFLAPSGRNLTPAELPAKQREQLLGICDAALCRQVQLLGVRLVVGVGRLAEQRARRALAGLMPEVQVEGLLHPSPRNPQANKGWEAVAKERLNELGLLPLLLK
NUDT16, sequence (Q96DE0 whole entry, species assumed): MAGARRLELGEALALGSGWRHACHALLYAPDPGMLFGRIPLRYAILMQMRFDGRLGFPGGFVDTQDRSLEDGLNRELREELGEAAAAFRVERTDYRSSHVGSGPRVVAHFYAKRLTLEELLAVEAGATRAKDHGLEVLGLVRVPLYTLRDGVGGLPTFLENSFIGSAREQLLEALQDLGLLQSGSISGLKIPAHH

With `NC(=O)c1cccc(-c2ccc(S(=O)(=O)Nc3ccc4c(c3)N(C(=O)C3CC3)CCC4)cc2)c1` [Compound 41] the “Enzyme activity, % of control at 200 nM” value (OGG1 [1]; 200 nM compound, ratio of initial rate slope (first 12 min) to no-compound control) was 39 ± 2.5 % of control, the “Enzyme activity, % of control at 2 μM” value (OGG1 [1]; 2 μM compound, ratio of initial rate slope (first 12 min) to no-compound control) was 4.8 % of control and the IC50 (OGG1 [1]; initial rates method) was 59 nM. It also gave a Kcat (OGG1 [2]; OGG1 with 200 nM 41) of 0.057 s⁻¹, a Kcat/Km (OGG1 [2]; OGG1 with 200 nM 41) of 0.0070 s^−1μM^−1 and a Km (OGG1 [2]; OGG1 with 200 nM 41) of 8.2 µM. It also gave a Kcat (OGG1 [2]; OGG1 with 2 μM 41) of 0.040 s⁻¹, a Kcat/Km (OGG1 [2]; OGG1 with 2 μM 41) of 0.022 s^−1μM^−1 and a Km (OGG1 [2]; OGG1 with 2 μM 41) of 1.8 µM. The “NUDT16 enzyme activity in the presence of the inhibitor” value (NUDT16) was roughly 70%, the “SMUG1 enzyme activity in the presence of the inhibitor” value (SMUG1) was roughly 100% and the “cytotoxicity by MTT assay” value (HEK293T cells; 10 nM to 10 μM) was “little or no cytotoxicity”. The “toxicity by MTT assay” value (HEK293T cells; 100 μM) was 30-50%, the “cytotoxicity by MTT assay” value (HeLa cells; 10 nM to 10 μM) was “little or no cytotoxicity” and the “toxicity by MTT assay” value (HeLa cells; 100 μM) was 30-50%. The Recovery ([3]; A-to-B) was 65%, the “Papp AVG” value ([3]; A-to-B) was 12.5 10^−6 cm/s and the “Papp R1” value ([3]; A-to-B) was 14.2 10^−6 cm/s. For the same compound, the “Efflux Ratio” value ([3]; B-to-A / A-to-B) was 6.2, the Recovery ([3]; B-to-A) was 79% and the “Papp AVG” value ([3]; B-to-A) was 77.4 10^−6 cm/s. The “Papp R1” value ([3]; B-to-A) was 63.5 10^−6 cm/s, the “average exposure, dose-normalized AUClast” value [4] was 543±281 hr*kg*ng/m L/m g and the “maximum blood concentrations (average)” value [4] was 1210 ± 206 ng/mL. The “time of maximum blood concentrations post dosing” value [4] was 15 min, the “Half-life Mean” value ([4]; mean of three replicates, listed as SU0268) was “approximately 4 hr and 4.02±0.709 hr and 4.02 hr” and the “Half-life R1” value ([4]; replicate 1) was 4.84 h. For the same compound, the “Half-life R3” value ([4]; replicate 3) was 3.60 h and the “activity of compound against DUT (selectivity)” value [5] was “low”.
